Like-named read-outs stand apart in the source and are kept apart here.
Columns and labels:
[1] = 4 W, 20 mcg/mL, tromethamine 10 mg/mL, 5.4 mg/mL sodium chloride in water
Protocol: (§1) Separate samples containing 20 mcg/mL levothyroxine sodium, 10 mg/mL tromethamine, 5.4 mg/mL sodium chloride, and sodium iodide at a concentration of 280 mcg/mL, 140 mcg/mL, or 6 mcg/mL in water were adjusted to various pH levels. 5 mL of each sample was filled into 10 cc flint molded vials, and the vials were stoppered with 20 mm stoppers under nitrogen.
The HPLC conditions were as follows: • Column: ACE Excel 3 C18-PFP, 4.6×150 mm HPLC column • Mobile Phase A: Sodium heptanesulfonate/Acetonitrile/Water/Methanol/H3PO4 (4.0 g/800 mL/1600 mL/1600 mL/4.0 mL) • Mobile Phase B: Sodium heptanesulfonate/Acetonitrile/Water/Methanol/H3PO4 (4.0 g/2000 mL/200 mL/1800 mL/4.0 mL) • Diluent: 0.01 N NaOH • Column temperature: 25° C. • Flow rate: 1.5 mL/min • Injection volume: 80 μL • Autosampler temperature: 5° C. • Detection: UV at 225 nm • Separation mode: Gradient Gradient Program: […]

[2] = 20 mcg/mL, tromethamine 10 mg/mL, 5.4 mg/mL sodium chloride in water
Protocol: as §1
The samples also were stored at temperatures of 25° C. or 40° C. for 2M or 4M prior to analysis by HPLC.
The HPLC conditions were as follows: • Column: Phenomenex Kinetex 2.6 μm C18, 4.6×150 mm HPLC column • Mobile Phase A: 0.05 M Sulfamic Acid, pH 2.0 • Mobile Phase B: Acetonitrile • Diluent: 10% Mobile Phase A in Methanol: Acetonitrile: Mobile Phase A (1000 mL: 300 mL: 700 mL) • Column temperature: 27° C. • Flow rate: 1.2 mL/min • Injection volume: 50 μL • Autosampler temperature: 25° C. • Detection: UV at 225 nm • Separation mode: Gradient Gradient Program: […]

[3] = 25° C., NaI 140 mcg/mL, pH 10.5
[4] = 25° C., NaI 280 mcg/mL, pH 10.5
[5] = 55° C., NaI 140 mcg/mL, pH 10.5
[6] = 55° C., NaI 280 mcg/mL, pH 10.5
[7] = 25° C., 2 M, NaI 6 mcg/mL, pH 10.5
[8] = 25° C., 2 M, NaI 140 mcg/mL, pH 9.5
[9] = 25° C., 2 M, NaI 140 mcg/mL, pH 10
[10] = 25° C., 2 M, NaI 140 mcg/mL, pH 10.5
[11] = 25° C., 2 M, NaI 280 mcg/mL, pH 9.5
[12] = 25° C., 2 M, NaI 280 mcg/mL, pH 10
[13] = 25° C., 2 M, NaI 280 mcg/mL, pH 10.5
[14] = 25° C., 4 M, NaI 6 mcg/mL, pH 10.5
[15] = 25° C., 4 M, NaI 140 mcg/mL, pH 9.5
[16] = 25° C., 4 M, NaI 140 mcg/mL, pH 10
[17] = 25° C., 4 M, NaI 140 mcg/mL, pH 10.5
[18] = 25° C., 4 M, NaI 280 mcg/mL, pH 9.5
[19] = 25° C., 4 M, NaI 280 mcg/mL, pH 10
[20] = 25° C., 4 M, NaI 280 mcg/mL, pH 10.5
[21] = 40° C., 2 M, NaI 6 mcg/mL, pH 10.5
[22] = 40° C., 2 M, NaI 140 mcg/mL, pH 9.5
[23] = 40° C., 2 M, NaI 140 mcg/mL, pH 10
[24] = 40° C., 2 M, NaI 140 mcg/mL, pH 10.5
[25] = 40° C., 2 M, NaI 280 mcg/mL, pH 9.5
[26] = 40° C., 2 M, NaI 280 mcg/mL, pH 10
[27] = 40° C., 2 M, NaI 280 mcg/mL, pH 10.5
[28] = 40° C., 4 M, NaI 6 mcg/mL, pH 10.5
[29] = 40° C., 4 M, NaI 140 mcg/mL, pH 9.5
[30] = 40° C., 4 M, NaI 140 mcg/mL, pH 10
[31] = 40° C., 4 M, NaI 140 mcg/mL, pH 10.5
[32] = 40° C., 4 M, NaI 280 mcg/mL, pH 9.5
[33] = 40° C., 4 M, NaI 280 mcg/mL, pH 10
[34] = 40° C., 4 M, NaI 280 mcg/mL, pH 10.5

With `N[C@@H](Cc1cc(I)c(Oc2cc(I)c(O)c(I)c2)c(I)c1)C(=O)[O-].[Na+]` [Levothyroxine Na, 4-(4-hydroxy-3,5-diiodophenoxy)-3,5-diiodo-L-phenylalanine sodium] the “% AOII” value ([1]; 25° C., NaI 6 mcg/mL, pH 10.5) was 0.33%, the “% total impurities” value ([1]; 25° C., NaI 6 mcg/mL, pH 10.5) was 1.9% and the “% AOII” value ([1]; 25° C., NaI 140 mcg/mL, pH 9.5) was 0.52%. The “% total impurities” value ([1]; 25° C., NaI 140 mcg/mL, pH 9.5) was 1.51%, the “% AOII” value ([1]; 25° C., NaI 140 mcg/mL, pH 10) was 0.55% and the “% total impurities” value ([1]; 25° C., NaI 140 mcg/mL, pH 10) was 1.64%. For the same molecule, the “% AOII” value [1, 3] was 0.6%, the “% total impurities” value [1, 3] was 1.75% and the “% AOII” value ([1]; 25° C., NaI 280 mcg/mL, pH 9.5) was 0.56%. For the same molecule, the “% total impurities” value ([1]; 25° C., NaI 280 mcg/mL, pH 9.5) was 1.58%, the “% AOII” value ([1]; 25° C., NaI 280 mcg/mL, pH 10) was 0.55% and the “% total impurities” value ([1]; 25° C., NaI 280 mcg/mL, pH 10) was 1.61%. The “% AOII” value [1, 4] was 0.57%, the “% total impurities” value [1, 4] was 1.66% and the “% AOII” value ([1]; 55° C., NaI 6 mcg/mL, pH 10.5) was 0.99%. The “% total impurities” value ([1]; 55° C., NaI 6 mcg/mL, pH 10.5) was 3.5%, the “% AOII” value ([1]; 55° C., NaI 140 mcg/mL, pH 9.5) was 0.59% and the “% total impurities” value ([1]; 55° C., NaI 140 mcg/mL, pH 9.5) was 3.6%. The “% AOII” value ([1]; 55° C., NaI 140 mcg/mL, pH 10) was 0.61%, the “% total impurities” value ([1]; 55° C., NaI 140 mcg/mL, pH 10) was 2.86% and the “% AOII” value [1, 5] was 0.53%. The “% total impurities” value [1, 5] was 2.49%, the “% AOII” value ([1]; 55° C., NaI 280 mcg/mL, pH 9.5) was 0.53% and the “% total impurities” value ([1]; 55° C., NaI 280 mcg/mL, pH 9.5) was 3.24%. The “% AOII” value ([1]; 55° C., NaI 280 mcg/mL, pH 10) was 0.54%, the “% total impurities” value ([1]; 55° C., NaI 280 mcg/mL, pH 10) was 2.76% and the “% AOII” value [1, 6] was 0.53%. The “% total impurities” value [1, 6] was 2.43%, the “% AOII” value [2, 7] was 0.46% and the “% total impurities” value [2, 7] was 1.85%. The “% AOII” value [2, 8] was 0.09%, the “% Liothyronine” value [2, 8] was 0.29% and the “% total impurities” value [2, 8] was 0.76%. For the same molecule, the “% AOII” value [2, 9] was 0.10%, the “% total impurities” value [2, 9] was 0.77% and the “% AOII” value [2, 10] was 0.12%. The “% Liothyronine” value [2, 10] was 0.24%, the “% total impurities” value [2, 10] was 0.88% and the “% AOII” value [2, 11] was 0.11%. The “% total impurities” value [2, 11] was 0.81%, the “% AOII” value [2, 12] was 0.12% and the “% Liothyronine” value [2, 12] was 0.24%. The “% total impurities” value [2, 12] was 0.8%, the “% AOII” value [2, 13] was 0.11% and the “% Liothyronine” value [2, 13] was 0.23%. For the same molecule, the “% total impurities” value [2, 13] was 0.85%, the “% AOII” value [2, 14] was 1.21% and the “% total impurities” value [2, 14] was 2.81%. For the same molecule, the “% AOII” value [2, 15] was 0.18%, the “% Liothyronine” value [2, 15] was 0.35% and the “% total impurities” value [2, 15] was 1.00%. The “% AOII” value [2, 16] was 0.17%, the “% total impurities” value [2, 16] was 0.93% and the “% AOII” value [2, 17] was 0.17%. For the same molecule, the “% total impurities” value [2, 17] was 0.94%, the “% AOII” value [2, 18] was 2.14% and the “% Liothyronine” value [2, 18] was 0.35%. The “% total impurities” value [2, 18] was 3.26%, the “% AOII” value [2, 19] was 0.17% and the “% total impurities” value [2, 19] was 0.93%. For the same molecule, the “% AOII” value [2, 20] was 0.11%, the “% total impurities” value [2, 20] was 1.04% and the “% AOII” value [2, 21] was 0.91%. For the same molecule, the “% Liothyronine” value [2, 21] was 0.43%, the “% total impurities” value [2, 21] was 2.5% and the “% AOII” value [2, 22] was 0.14%. For the same molecule, the “% Liothyronine” value [2, 22] was 0.88%, the “% total impurities” value [2, 22] was 1.42% and the “% AOII” value [2, 23] was 0.14%. For the same molecule, the “% Liothyronine” value [2, 23] was 0.55%, the “% total impurities” value [2, 23] was 1.18% and the “% AOII” value [2, 24] was 0.15%. The “% Liothyronine” value [2, 24] was 0.41%, the “% total impurities” value [2, 24] was 1.09% and the “% AOII” value [2, 25] was 0.13%. The “% Liothyronine” value [2, 25] was 0.9%, the “% total impurities” value [2, 25] was 1.56% and the “% AOII” value [2, 26] was 0.13%. For the same molecule, the “% Liothyronine” value [2, 26] was 0.55%, the “% total impurities” value [2, 26] was 1.2% and the “% AOII” value [2, 27] was 0.17%. For the same molecule, the “% Liothyronine” value [2, 27] was 0.39%, the “% total impurities” value [2, 27] was 1.07% and the “% AOII” value [2, 28] was 1.45%. The “% Liothyronine” value [2, 28] was 0.6%, the “% total impurities” value [2, 28] was 3.51% and the “% AOII” value [2, 29] was 0.72%. The “% Liothyronine” value [2, 29] was 1.3%, the “% total impurities” value [2, 29] was 2.84% and the “% AOII” value [2, 30] was 0.92%. For the same molecule, the “% Liothyronine” value [2, 30] was 0.86%, the “% total impurities” value [2, 30] was 2.73% and the “% AOII” value [2, 31] was 0.69%. For the same molecule, the “% Liothyronine” value [2, 31] was 0.59%, the “% total impurities” value [2, 31] was 2.14% and the “% AOII” value [2, 32] was 0.52%. For the same molecule, the “% Liothyronine” value [2, 32] was 1.23%, the “% total impurities” value [2, 32] was 2.76% and the “% AOII” value [2, 33] was 1.38%. The “% Liothyronine” value [2, 33] was 0.84%, the “% total impurities” value [2, 33] was 3.23% and the “% AOII” value [2, 34] was 1.07%. The “% Liothyronine” value [2, 34] was 0.58% and the “% total impurities” value [2, 34] was 2.72%.

From patent US12636270B2, “Levothyroxine liquid formulations” (Fresenius Kabi USA, LLC, priority 2016, dated 2026)
